# Source: patent US12599603B2, “Methods of treatment” (INTRA-CELLULAR THERAPIES, INC., priority 2019, dated 2026)
# What was measured:
# CT26 murine cancer cells = test: Growth of CT26 murine colon carcinoma tumors in BALB/C mice (Example 1); format: in vivo; conditions: 50 mg/kg once daily i.p. from day 7, after 30 days, vs untreated control (FIG. 1)
# Method: Aliquots of cancerous cells are injected into the subscapular space of BALB/C mice to induce colon carcinoma. The tumors are allowed to grow for 7 days, when tumor volume is measured. Once a tumor has formed, drug treatment is initiated (50 mg/kg Compound 1, once daily, i.p. in 0.5% methylcellulose vehicle) and tumor growth is observed and recorded daily. Compounds 1 is shown below:
# The mice were sacrificed at thirty days post-injection, and the tumors are isolated from the mice.
# [1] = test system: tumor-infiltrating immune cells of CT26 tumors; test: FACS of tumor-infiltrating immune cells in CT26 tumors (Example 2); format: in vivo, BALB/c mice; conditions: FACS of tumors excised at day 17-18
# Method: (§1) BALB/c mice were subcutaneously injected with CT26 cells at day 0 and then divided into four groups at day 7: (1) Compound 1 treatment, (50 mg/kg, i.p. qd), 5 days/week; (2) Isotype group, ip mlgG isotype at days 7, 10 and 14; (3) Anti-PD-1 group, administered i.p. at days 7, 10 and 14; and (4) Combination group, treated with Compound 1 and anti-PD-1 as group 1 and group 3. Tumor volumes were measured every 2 or 3 days. At day 17-18, tumors were excised, dissected, and used to make single cell suspensions. These tumor single cell suspensions were incubated with FC blocker (eBioscience) and then stained with antibodies on ice in the dark. Samples were acquired on a FACSCalibur, LSRII or LSRII yellow (BD Biosciences), and analyzed with FlowJo (Tree Star).
# [2] = test system: immune cells in the tumor microenvironment of CT26 tumors; test: Flow cytometry of immune cells in dissociated CT26 tumors (Example 1); format: in vivo, BALB/C mice; conditions: 50 mg/kg once daily i.p.; tumors isolated at thirty days post-injection; flow cytometry (FIG. 2)
# Method: The tumors were then enzymatically dissociated into a single cell suspensions, stained with fluorophore-tagged antibodies and are analyzed by flow cytometry. Cells were sorted and analyzed for immune markers. […] In turn, it is believed this this allows the innate immune system to more efficiently target tumor cells, which is consistent with the results observed here (i.e., increased activation of T-cells in the tumor microenvironment).
# CT26 xenograft tumors = test: Growth of CT26 xenograft tumors, Compound 1 alone or with anti-PD-1 (Example 2); format: in vivo, BALB/c mice; conditions: Compound 1 50 mg/kg i.p. qd 5 days/week from day 7; anti-PD-1 sub-effective dose i.p. days 7, 10 and 14; isotype group zero out of nine
# Method: The effects of Compound 1, alone or combination with sub-effective doses of the checkpoint inhibitor, anti-PD-1, were assessed on the growth of CT26 xenograft tumors in BALB/c mice. Treatment-naïve tumor-bearing mice (i.e., isotype group) were compared with groups of mice receiving monotherapy of Compound 1 defined in Example 1, mice receiving a sub-effective dose of a checkpoint inhibitor (anti-PD-1 antibody), and mice receiving both Compound 1 and a sub-effective dose of anti-PD-1 antibody.
# as §1
# At the end of experiments, tumors were also weighed.
compound,measurement,setting,value
CN1C(=O)c2c(nn(Cc3ccc(-c4cccc(F)n4)cc3)c2Nc2ccccc2)N2C1=N[C@@H]1CCC[C@@H]12 [Compound 1],tumor growth,CT26 murine cancer cells,significantly slowed tumor growth
same,numbers of CD45+ tumor (infiltrating) macrophages,[1],significantly decreased numbers
same,numbers of CD45+ tumor (infiltrating) monocytes,[1],significantly decreased numbers
same,CD8 T-cells in the tumor microenvironment,[2],significant increases
same,macrophage presence in the tumor microenvironment,[2],significant decrease
same,monocytes in the tumor microenvironment,[2],significant increases
same,mice showing tumor clearance (tumor volume smaller than 100 mm^3),CT26 xenograft tumors,one out of five
